Experimental data as given in patent US8420830B2, “Macrocyclic factor VIIa inhibitors useful as anticoagulants” (Bristol-Myers Squibb Company, priority 2006, dated 2013).
Values joined by “and” are separate entries in the source; they are usually repeats but may differ in a detail not shown here. Identical values can stand only once. Like-named read-outs stand apart in the source and are kept apart here.

Tests used:
[1] = amide bond, BOP, CH2Cl2, 40.0 °C
[2] = amide bond; 16-membered ring; TFA; BOP/DMAP/Et3N; CH2Cl2/DMF; 40.0 °C; 2 steps
Factor VIIa = target: T1, Factor VIIa (Homo sapiens, UniProt P08709); experiment: Factor VIIa assay; assay type: biochemical; details: measured in the Factor VIIa assay described above; several values in a cell are repeat determinations
T1 construct: purchased Haematologic Technologies (purified) or Novo Nordisk (recombinant)

[3] = tested on: patients undergoing total knee replacement; details: cited from earlier work
[4] = tested on: patients undergoing coronary angioplasty; details: cited from earlier work
[5] = tested on: patients with acute coronary syndromes; details: cited from earlier work

T1 sequence (P08709 213-466 limits assumed): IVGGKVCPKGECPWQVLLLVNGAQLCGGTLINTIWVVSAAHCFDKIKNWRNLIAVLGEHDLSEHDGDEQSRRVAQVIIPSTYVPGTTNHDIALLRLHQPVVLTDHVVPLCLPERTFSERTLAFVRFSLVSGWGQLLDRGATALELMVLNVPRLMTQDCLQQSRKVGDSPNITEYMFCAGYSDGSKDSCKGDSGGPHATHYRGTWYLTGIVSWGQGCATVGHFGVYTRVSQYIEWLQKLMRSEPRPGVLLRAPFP
T1 sequence (P08709 61-212 limits assumed): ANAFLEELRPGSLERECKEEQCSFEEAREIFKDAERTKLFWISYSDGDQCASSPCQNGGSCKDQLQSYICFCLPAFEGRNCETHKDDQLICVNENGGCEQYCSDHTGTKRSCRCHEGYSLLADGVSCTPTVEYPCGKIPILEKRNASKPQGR
T1 sequence (P13726 33-251 partner limits assumed): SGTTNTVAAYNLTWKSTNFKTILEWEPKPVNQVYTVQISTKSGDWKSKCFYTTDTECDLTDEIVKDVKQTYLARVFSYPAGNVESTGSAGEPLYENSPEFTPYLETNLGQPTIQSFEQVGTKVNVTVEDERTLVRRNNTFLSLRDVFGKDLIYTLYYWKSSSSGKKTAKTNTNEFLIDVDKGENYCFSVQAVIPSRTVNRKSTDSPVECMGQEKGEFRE

Work on CC(C)S(=O)(=O)c1ccc2cc1CN(C)C(=O)[C@H](Nc1ccc3c(c1)C(=O)NC3)c1ccc(cc1)CCCC(=O)N2 yielded a ring closure, yield of all isomers ([1]; from CNCc1cc(NC(=O)CCCc2ccc(C(Nc3ccc4c(c3)C(=O)NC4)C(=O)O)cc2)ccc1S(=O)(=O)C(C)C, 8.05 mM, 16.0 h) of 31.8%.
With CC(C)S(=O)(=O)c1ccc2cc1CN(C)C(=O)[C@H](Nc1ccc3c(c1)C(=O)NCC3)c1ccc(cc1)CCCC(=O)N2 the ring closure, yield of all isomers ([1]; from CNCc1cc(NC(=O)CCCc2ccc(C(Nc3ccc4c(c3)C(=O)NCC4)C(=O)O)cc2)ccc1S(=O)(=O)C(C)C, 5.11 mM, 7.0 h) was 19.9%.
CCS(=O)(=O)c1ccc2cc1CNC(=O)[C@H](Nc1ccc3c(c1)C(=O)NC3)c1ccc(cc1)CCCC(=O)N2 gave a ring closure, yield of all isomers ([1]; from CCS(=O)(=O)c1ccc(NC(=O)CCCc2ccc(C(Nc3ccc4c(c3)C(=O)NC4)C(=O)O)cc2)cc1CNC(=O)OC(C)(C)C, 6.6 mM, 6.0 h, 2 steps) of 27.7%.
CCS(=O)(=O)c1ccc2cc1CNC(=O)[C@H](Nc1ccc3c(c1)C(=O)NCC3)c1ccc(cc1)CCCC(=O)N2 gave a ring closure, yield after HPLC [2] of 28.4% and a ring closure, yield of all isomers ([1]; from CCS(=O)(=O)c1ccc(NC(=O)CCCc2ccc(C(Nc3ccc4c(c3)C(=O)NCC4)C(=O)O)cc2)cc1CNC(=O)OC(C)(C)C, 6.0 h, 2 steps) of 28.4%.
Work on COCCN1Cc2cccc(c2)NC(=O)OC[C@H](C)c2ccc(cc2C)[C@@H](Nc2ccc3cc[nH]c(=O)c3c2)C1=O [Example 152, (2R,15R)-4-(2-Methoxy-ethyl)-15,17-dimethyl-2-(1-oxo-1,2-dihydro-isoquinolin-7-ylamino)-13-oxa-4,11-diaza-tricyclo[14.2.2.1^6,10]henicosa-1(19),6,8,10(21),16(20),17-hexaene-3,12-dione] yielded a Ki (Factor VIIa) of 1060 nM.
COC(=O)NCCN1Cc2cccc(c2)NC(=O)OC[C@H](C)c2ccc(cc2C)[C@@H](Nc2ccc3cc[nH]c(=O)c3c2)C1=O [Example 153, {2-[(2R,15R)-15,17-Dimethyl-3,12-dioxo-2-(1-oxo-1,2-dihydro-isoquinolin-7-ylamino)-13-oxa-4,11-diaza-tricyclo[14.2.2.1^6,10]henicosa-1(19),6,8,10(21),16(20),17-hexaen-4-yl]-ethyl}-carbamic acid methyl ester] showed a Ki (Factor VIIa) of 1460 nM.
Molecule CCOC(=O)CCN1Cc2cccc(c2)NC(=O)OC[C@H](C)c2ccc(cc2C)[C@@H](Nc2ccc3cc[nH]c(=O)c3c2)C1=O [Example 154, 3-[(2R,15R)-15,17-Dimethyl-3,12-dioxo-2-(1-oxo-1,2-dihydro-isoquinolin-7-ylamino)-13-oxa-4,11-diaza-tricyclo[14.2.2.1^6,10]henicosa-1(19),6,8,10(21),16(20),17-hexaen-4-yl]-propionic acid ethyl ester] has a Ki (Factor VIIa) of 1000 nM.
In the case of Cc1cc2ccc1[C@@H](C)COC(=O)Nc1cccc(c1)[C@@H](C)NC(=O)[C@@H]2Nc1ccc2cc[nH]c(=O)c2c1 [Example 158], the Ki (Factor VIIa) is reported as 27.1 nM and 97.5 nM.
With Cc1cc2ccc1[C@@H](C)COC(=O)Nc1ccc(N3C(=O)C4CCC3CC4)c(c1)CN(C)C(=O)[C@@H]2Nc1ccc2cc[nH]c(=O)c2c1 [Example 168, (2R,15R)-4,15,17-Trimethyl-7-(3-oxo-2-aza-bicyclo[2.2.2]oct-2-yl)-2-(1-oxo-1,2-dihydro-isoquinolin-7-ylamino)-13-oxa-4,11-diaza-tricyclo[14.2.2.1^6,10]henicosa-1(19),6,8,10(21),16(20),17-hexaene-3,12-dione] the Ki (Factor VIIa) was 0.88 nM.
In the case of “recombinant nematode anticoagulant protein c2 [rNAPc2]”, the deep vein thrombosis [3] is listed as “prevents deep vein thrombosis”, the systemic thrombin generation [4] is listed as “reduces systemic thrombin generation” and the “magnitude and duration of ischemic events” value [5] is listed as “reduces magnitude and duration of ischemic events”.
